In ChEMBL document CHEMBL3627608, “Crystal structures of human RIP2 kinase catalytic domain complexed with ATP-competitive inhibitors: Foundations for understanding inhibitor selectivity” (Bioorg Med Chem, 2015):

Experiments:
[1] = molecular target: T1, Serine/threonine-protein kinase ULK3 (Homo sapiens) (UniProt Q6PHR2); experiment: Inhibition of ULK3 (unknown origin) at 10 uM after 120 mins P33 radiolabeled kinase activity assay
T1 sequence (whole entry): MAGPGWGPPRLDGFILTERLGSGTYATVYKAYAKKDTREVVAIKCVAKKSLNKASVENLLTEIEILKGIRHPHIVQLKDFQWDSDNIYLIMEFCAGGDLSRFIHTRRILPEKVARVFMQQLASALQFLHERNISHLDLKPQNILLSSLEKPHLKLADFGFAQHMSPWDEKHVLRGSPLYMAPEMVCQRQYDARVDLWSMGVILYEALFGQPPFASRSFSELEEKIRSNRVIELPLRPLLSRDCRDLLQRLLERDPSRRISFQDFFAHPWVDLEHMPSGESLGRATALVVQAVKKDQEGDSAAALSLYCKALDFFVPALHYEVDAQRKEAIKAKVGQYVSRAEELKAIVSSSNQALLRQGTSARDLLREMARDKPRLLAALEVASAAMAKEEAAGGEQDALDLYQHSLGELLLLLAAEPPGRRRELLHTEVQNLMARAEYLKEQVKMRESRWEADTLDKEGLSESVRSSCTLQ

[2] = molecular target: T2, Serine/threonine-protein kinase Nek11 (Homo sapiens) (UniProt Q8NG66); experiment: Inhibition of NEK11 (unknown origin) at 10 uM after 120 mins P33 radiolabeled kinase activity assay
T2 sequence (whole entry): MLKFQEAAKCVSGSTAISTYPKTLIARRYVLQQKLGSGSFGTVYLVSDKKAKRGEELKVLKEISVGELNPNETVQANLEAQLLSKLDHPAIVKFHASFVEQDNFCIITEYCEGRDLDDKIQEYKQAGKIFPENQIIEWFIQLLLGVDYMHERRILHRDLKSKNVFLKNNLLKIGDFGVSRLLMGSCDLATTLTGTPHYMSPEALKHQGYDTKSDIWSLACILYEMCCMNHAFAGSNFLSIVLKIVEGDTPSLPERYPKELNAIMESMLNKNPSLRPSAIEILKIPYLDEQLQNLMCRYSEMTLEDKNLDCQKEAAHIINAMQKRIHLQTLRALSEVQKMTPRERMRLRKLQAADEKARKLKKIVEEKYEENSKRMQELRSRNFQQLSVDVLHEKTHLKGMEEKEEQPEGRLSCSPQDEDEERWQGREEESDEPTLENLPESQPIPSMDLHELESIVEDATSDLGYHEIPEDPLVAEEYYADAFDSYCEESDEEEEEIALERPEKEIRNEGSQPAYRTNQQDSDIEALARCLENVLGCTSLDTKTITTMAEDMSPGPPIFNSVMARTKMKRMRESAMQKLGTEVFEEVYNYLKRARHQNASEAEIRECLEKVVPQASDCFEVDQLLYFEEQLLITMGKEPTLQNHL

[3] = molecular target: Tyrosine-protein kinase JAK2 (Homo sapiens) (UniProt O60674); experiment: Inhibition of JAK2 (unknown origin) at 10 uM after 120 mins P33 radiolabeled kinase activity assay
[4] = molecular target: T3, Serine/threonine-protein kinase Nek5 (Homo sapiens) (UniProt Q6P3R8); experiment: Inhibition of NEK5 (unknown origin) at 10 uM after 120 mins P33 radiolabeled kinase activity assay
T3 sequence (whole entry): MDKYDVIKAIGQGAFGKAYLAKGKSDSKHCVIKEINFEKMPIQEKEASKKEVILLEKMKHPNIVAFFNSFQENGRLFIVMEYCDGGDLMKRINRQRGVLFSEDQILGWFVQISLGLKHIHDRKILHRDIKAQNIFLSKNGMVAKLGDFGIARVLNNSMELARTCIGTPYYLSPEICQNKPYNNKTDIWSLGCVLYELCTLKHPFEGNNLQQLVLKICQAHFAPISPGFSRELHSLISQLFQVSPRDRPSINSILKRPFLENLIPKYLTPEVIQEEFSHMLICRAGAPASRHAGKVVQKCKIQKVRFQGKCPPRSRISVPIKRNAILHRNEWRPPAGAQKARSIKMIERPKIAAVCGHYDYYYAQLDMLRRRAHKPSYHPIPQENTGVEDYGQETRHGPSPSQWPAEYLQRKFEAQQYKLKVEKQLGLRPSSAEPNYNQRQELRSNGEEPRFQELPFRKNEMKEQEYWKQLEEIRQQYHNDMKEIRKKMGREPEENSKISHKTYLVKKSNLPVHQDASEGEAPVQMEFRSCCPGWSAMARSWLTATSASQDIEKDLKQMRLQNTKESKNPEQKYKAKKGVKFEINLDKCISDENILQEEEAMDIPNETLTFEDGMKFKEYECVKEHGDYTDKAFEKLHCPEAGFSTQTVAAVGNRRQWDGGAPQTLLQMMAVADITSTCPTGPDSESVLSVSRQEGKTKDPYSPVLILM

[5] = molecular target: STE20-like serine/threonine-protein kinase (Homo sapiens) (UniProt Q9H2G2); experiment: Inhibition of SLK (unknown origin) at 10 uM after 120 mins P33 radiolabeled kinase activity assay
[6] = molecular target: Ephrin type-A receptor 2 (Homo sapiens) (UniProt P29317); experiment: Inhibition of EPHA2 (unknown origin) at 10 uM after 120 mins P33 radiolabeled kinase activity assay
[7] = molecular target: T4, Serine/threonine-protein kinase DCLK2 (Homo sapiens) (UniProt Q8N568); experiment: Inhibition of DCAMKL2 (unknown origin) at 10 uM after 120 mins P33 radiolabeled kinase activity assay
T4 sequence (whole entry): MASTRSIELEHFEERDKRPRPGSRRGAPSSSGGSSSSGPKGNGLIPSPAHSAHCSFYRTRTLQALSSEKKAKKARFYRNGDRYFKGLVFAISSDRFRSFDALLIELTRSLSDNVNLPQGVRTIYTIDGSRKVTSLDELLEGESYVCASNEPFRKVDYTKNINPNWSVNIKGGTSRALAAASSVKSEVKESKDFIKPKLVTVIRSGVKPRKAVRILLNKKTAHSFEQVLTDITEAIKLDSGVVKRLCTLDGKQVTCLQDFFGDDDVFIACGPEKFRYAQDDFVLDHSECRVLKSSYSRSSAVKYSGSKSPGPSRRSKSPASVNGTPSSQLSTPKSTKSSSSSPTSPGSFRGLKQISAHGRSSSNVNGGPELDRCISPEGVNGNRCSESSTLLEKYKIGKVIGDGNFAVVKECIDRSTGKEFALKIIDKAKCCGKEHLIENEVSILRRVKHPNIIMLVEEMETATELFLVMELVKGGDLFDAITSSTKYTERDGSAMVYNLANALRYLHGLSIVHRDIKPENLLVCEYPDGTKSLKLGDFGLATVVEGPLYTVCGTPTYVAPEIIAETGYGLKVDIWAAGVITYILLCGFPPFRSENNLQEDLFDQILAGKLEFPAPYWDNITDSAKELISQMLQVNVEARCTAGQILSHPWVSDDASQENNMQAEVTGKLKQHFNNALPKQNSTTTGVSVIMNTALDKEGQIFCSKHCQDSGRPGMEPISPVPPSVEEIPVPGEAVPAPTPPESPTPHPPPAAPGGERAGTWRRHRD

Sequence of Tyrosine-protein kinase JAK2 (Homo sapiens) (O60674 whole entry): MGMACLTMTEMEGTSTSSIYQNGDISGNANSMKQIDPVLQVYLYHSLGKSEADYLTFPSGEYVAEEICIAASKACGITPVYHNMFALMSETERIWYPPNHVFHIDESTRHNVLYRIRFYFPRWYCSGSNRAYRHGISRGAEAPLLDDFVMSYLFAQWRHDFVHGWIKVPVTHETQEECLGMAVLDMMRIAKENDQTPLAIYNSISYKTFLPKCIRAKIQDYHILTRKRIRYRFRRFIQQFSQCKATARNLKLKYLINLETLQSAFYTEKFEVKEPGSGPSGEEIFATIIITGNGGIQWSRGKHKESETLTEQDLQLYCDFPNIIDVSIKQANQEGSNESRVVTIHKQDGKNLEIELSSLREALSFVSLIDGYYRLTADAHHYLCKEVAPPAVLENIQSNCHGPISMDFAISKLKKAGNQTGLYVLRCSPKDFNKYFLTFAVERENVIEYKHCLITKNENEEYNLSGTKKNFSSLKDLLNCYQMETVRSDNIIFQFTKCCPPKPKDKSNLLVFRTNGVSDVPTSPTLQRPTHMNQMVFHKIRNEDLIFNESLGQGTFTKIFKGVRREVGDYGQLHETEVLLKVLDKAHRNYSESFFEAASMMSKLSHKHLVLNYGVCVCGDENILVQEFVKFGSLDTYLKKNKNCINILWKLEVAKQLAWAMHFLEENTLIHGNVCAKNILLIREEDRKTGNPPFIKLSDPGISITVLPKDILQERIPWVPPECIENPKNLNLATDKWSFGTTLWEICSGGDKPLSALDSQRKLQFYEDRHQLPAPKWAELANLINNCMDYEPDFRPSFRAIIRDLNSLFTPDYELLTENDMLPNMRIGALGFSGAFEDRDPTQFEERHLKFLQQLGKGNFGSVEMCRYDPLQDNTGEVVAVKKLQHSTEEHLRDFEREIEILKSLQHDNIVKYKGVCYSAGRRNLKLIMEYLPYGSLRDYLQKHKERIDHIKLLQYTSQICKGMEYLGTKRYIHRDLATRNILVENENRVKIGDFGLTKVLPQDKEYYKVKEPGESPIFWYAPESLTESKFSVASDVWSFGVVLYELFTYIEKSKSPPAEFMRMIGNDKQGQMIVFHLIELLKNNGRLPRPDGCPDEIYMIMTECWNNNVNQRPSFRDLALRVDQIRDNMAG
Sequence of Ephrin type-A receptor 2 (Homo sapiens) (P29317 whole entry): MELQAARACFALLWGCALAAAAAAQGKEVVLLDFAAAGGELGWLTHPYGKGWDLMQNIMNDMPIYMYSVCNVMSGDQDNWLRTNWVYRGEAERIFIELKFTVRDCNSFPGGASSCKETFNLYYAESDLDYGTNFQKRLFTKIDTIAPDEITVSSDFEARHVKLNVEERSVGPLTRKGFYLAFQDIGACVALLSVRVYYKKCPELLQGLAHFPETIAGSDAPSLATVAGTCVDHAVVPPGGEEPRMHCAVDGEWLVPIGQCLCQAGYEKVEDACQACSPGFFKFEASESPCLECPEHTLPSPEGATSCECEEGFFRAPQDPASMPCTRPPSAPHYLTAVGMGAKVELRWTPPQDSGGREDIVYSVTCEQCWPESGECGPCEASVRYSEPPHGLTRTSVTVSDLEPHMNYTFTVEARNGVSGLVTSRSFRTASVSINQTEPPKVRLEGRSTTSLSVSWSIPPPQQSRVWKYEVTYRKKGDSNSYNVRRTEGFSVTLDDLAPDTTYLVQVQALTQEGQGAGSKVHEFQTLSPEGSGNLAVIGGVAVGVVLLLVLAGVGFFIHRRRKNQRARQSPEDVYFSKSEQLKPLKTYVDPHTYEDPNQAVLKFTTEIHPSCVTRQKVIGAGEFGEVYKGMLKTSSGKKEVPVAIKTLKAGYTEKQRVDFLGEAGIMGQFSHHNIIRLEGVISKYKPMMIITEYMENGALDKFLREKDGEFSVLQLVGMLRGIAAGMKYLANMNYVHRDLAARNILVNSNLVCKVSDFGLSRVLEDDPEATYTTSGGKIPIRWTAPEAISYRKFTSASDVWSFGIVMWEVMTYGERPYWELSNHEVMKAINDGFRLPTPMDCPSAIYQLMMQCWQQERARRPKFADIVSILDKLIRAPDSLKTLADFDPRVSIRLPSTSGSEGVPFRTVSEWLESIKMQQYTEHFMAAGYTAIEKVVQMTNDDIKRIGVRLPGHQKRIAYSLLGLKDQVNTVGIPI
Sequence of STE20-like serine/threonine-protein kinase (Homo sapiens) (Q9H2G2 whole entry, looked up): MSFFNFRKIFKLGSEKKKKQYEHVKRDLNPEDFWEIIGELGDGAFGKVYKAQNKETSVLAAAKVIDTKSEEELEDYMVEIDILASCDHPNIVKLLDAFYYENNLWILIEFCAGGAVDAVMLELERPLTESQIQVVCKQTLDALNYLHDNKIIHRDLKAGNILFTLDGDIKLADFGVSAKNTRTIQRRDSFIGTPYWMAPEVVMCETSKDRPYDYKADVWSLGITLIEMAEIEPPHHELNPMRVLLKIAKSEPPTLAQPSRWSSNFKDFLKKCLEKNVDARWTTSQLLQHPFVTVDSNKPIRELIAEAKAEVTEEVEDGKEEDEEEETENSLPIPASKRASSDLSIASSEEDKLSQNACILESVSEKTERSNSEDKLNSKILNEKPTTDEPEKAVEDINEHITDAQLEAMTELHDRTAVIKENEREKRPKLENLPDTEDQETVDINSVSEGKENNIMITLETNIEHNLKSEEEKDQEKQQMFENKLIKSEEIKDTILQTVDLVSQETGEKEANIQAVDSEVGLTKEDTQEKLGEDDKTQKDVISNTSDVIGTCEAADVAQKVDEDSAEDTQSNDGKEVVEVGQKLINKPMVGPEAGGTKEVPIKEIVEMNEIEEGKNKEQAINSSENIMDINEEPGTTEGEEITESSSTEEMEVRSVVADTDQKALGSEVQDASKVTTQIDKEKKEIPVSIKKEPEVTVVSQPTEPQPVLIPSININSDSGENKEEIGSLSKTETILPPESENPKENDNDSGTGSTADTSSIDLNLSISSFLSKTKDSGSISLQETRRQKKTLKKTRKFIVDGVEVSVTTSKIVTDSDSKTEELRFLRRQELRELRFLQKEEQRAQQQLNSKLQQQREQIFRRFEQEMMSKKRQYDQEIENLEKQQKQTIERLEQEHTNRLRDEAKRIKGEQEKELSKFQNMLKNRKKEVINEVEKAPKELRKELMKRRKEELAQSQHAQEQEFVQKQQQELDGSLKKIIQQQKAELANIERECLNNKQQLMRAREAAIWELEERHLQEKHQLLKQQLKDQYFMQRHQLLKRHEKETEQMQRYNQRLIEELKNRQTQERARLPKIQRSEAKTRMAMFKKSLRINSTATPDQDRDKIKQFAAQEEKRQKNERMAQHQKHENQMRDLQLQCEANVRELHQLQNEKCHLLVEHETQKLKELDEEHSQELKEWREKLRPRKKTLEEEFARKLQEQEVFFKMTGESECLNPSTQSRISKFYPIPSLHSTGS

| SMILES | inhibition [1] [%] | inhibition [2] [%] | inhibition [3] [%] | inhibition [4] [%] | inhibition [5] [%] | inhibition [6] [%] | inhibition [7] [%] |
| --- | --- | --- | --- | --- | --- | --- | --- |
| CS(=O)(=O)c1cccc(Nc2nccc(-c3sc(N4CCOCC4)nc3-c3cccc(NS(=O)(=O)c4c(F)cccc4F)c3)n2)c1 | 89.6 | 89.4 | 12 | 50.5 | 86 | 68 | -1.11 |
| COCCNC(=O)c1ccc2c(c1)nc(-c1cnc(-c3ccc(Cl)cc3)[nH]1)n2CCOC | -5.07 | 24.4 | -2.57 | 9.53 | 31.2 | 19.6 | -0.71 |
| CC(C)(C)c1cc(NC(=O)Nc2ccc(Oc3ccncc3)cc2)no1 | 31.7 | 24.4 | -0.98 | 27.3 | 73 | 97.3 | 2.04 |
